# Assay: in vitro
# Details: human, hela cells, % viability
row,Structure (SMILES),"viability at 28.5 h, 10 µM [%]"
1,CCCc1cc(C2CCCCCN2C(=O)c2cccnc2)no1 (centres unmarked) [CBK282987],99.5
2,NC(=O)CSc1nnc(SCc2cccc3ccccc23)s1 [CBK266150],106
3,CCNc1nnc(SCCC(=O)N2CCN(c3ccc(F)cc3)CC2)s1 [CBK305058],100
4,O=C(Nc1ccc(SC(F)F)cc1)c1cc(-c2ccncc2)nc2ccccc12 [CBK296092],85.8
5,COc1cc(CNC(=O)N2CCC(C(=O)O)CC2)cc(OC)c1OC [CBK161401],81.5
6,CC(C)Cn1c(=O)c(C(=O)Nc2ccccc2S(N)(=O)=O)c(O)c2ccccc21 [CBK262290],93.1
7,Cc1ccc(S(=O)(=O)NC(C)(C)CSc2nncn2C)cc1 [CBK266366],104
8,O=[N+]([O-])c1cc(S(=O)(=O)Nc2ccccc2)ccc1N1CCN2CCCC2C1 (centres unmarked) [CBK001248],87.7
9,COc1ccc(C2c3cc(OC)c(OC)cc3CC(=O)N2c2ccc(C(=O)O)cc2)cc1 (centres unmarked) [CBK296074],93.6
10,CCNC(=O)Nc1ccc(-c2ccncc2)c2ccccc12 [CBK083720],88.8
11,Cn1c(CCNC(=O)NC2CCCCC2)nc2cc([N+](=O)[O-])ccc21 [CBK268453],95.7
12,Cc1cc(CN2CCN(S(=O)(=O)c3ccc(-c4ccccc4)cc3)CC2)cc(C)c1O [CBK062747],115
13,COC(=O)c1c(NC(=S)NC(=O)c2c(Br)c(C)nn2C)sc2c1CCCCCC2 [CBK267486],94.5
14,CCn1c(SCc2cccnc2)nc2c(c1=O)SC(C)C2 (centres unmarked) [CBK287643],87.7
15,CN1CCC[C@H]1C(=O)Nc1ccc2ncccc2c1 [CBK159825],95.7
16,c1ccc(Nc2nc(-c3ccc4c(c3)OCO4)cn3ccnc23)cc1 [CBK037494],92.2
17,Cc1ccc(S(=O)(=O)N2CCN(C(=O)CSc3nnc4sc5ccccc5n34)CC2)cc1 [CBK265961],90.5
18,O=C(C1CCC1)N1CCC2(CC1)Nc1cccnc1-n1cccc12 [CBK284505],92.5
19,Cc1ccc(NC(=O)C(=O)NCCCn2ccnc2)cc1C [CBK264157],98
20,O=C(COc1ccc(F)cc1)Nc1cccc2[nH]ccc12 [CBK159653],86
21,Cc1ccccc1C(=O)NC(=S)Nc1sc2c(c1C(N)=O)CCC2 [CBK262107],88.9
22,c1ccc2[nH]c(CCCCCc3nc4ccccc4[nH]3)nc2c1 [CBK267694],107

row,Structure (SMILES),"viability at 28.5 h, 10 µM [%]"
1,O=C(Nc1ccc(S(=O)(=O)Nc2nccs2)cc1)C1CC(=O)N(c2ccccc2)C1 (centres unmarked) [CBK264732],104
2,Cc1ccc(OCC(=O)Nc2cccnc2)c(-n2nc3ccccc3n2)c1 [CBK270281],90.9
3,Cn1c(CSCc2ccccc2F)nnc1SCC(=O)c1ccc(Br)cc1 [CBK269143],92.3
4,Cc1nnc(SCC(=O)n2c3c(c4ccccc42)CCCC3)n1C [CBK268351],111
5,COc1ccc(-c2nc3cc(NC(=O)C(c4ccccc4)c4ccccc4)ccc3o2)cc1 [CBK264980],113
6,O=C(CN1C2CCC1CC(O)(c1ccco1)C2)Nc1ccccc1F (centres unmarked) [CBK284109],96.7
7,CCN(CC)CCN1CCN(c2cncc(-c3cccc(/C=C/C(=O)O)c3)n2)CC1 [CBK066097],96.6
8,Cc1nc(N)sc1-c1nnc(SCC(=O)Nc2ccccc2C(F)(F)F)n1C [CBK267359],99.5
9,CSc1ncc(C(=O)NC2CCCC2)c(NC2CCCC2)n1 [CBK291223],91.3
10,CC(=O)c1c(C)oc2c1cc(NS(=O)(=O)c1ccc(C(=O)O)cc1)c1ccccc12 [CBK299780],92
11,O=C(Oc1cccc2cnccc12)c1ccccc1 [CBK022889C],105
12,COc1ccc(-c2ncc(OCc3cccs3)nc2N)c(OC)c1 [CBK145088],84
13,COc1ccccc1N1CCN(C2CCN(S(=O)(=O)c3ccc(NC(C)=O)cc3)CC2)CC1 [CBK264688],93.7
14,COc1ccc(CC(=O)Nc2ccc(-c3nnc(-c4ccccc4)o3)cc2)cc1OC [CBK267414],94.9
15,Cc1cccc(CN(CCCN(C)C)Cc2ccc(C)o2)n1 [CBK283187],98.2
16,O=C(O)c1ccc(CNCCN2CCOCC2)cc1 [CBK287223],101
17,COc1ccc(NC(=O)c2cnccn2)c(OC)c1 [CBK262240],105
18,CC1CN(Cc2cccc(CNc3nccnc3C#N)c2)CCO1 (centres unmarked) [CBK304736],94
19,Cn1c(=O)n(C)c2cc(CNC(=O)C3NCCc4[nH]cnc43)ccc21 (centres unmarked) [CBK307274],89.2
20,Cn1cnnc1C1CCCN(C(=O)NCc2cccc(F)c2)C1 (centres unmarked) [CBK305792],101
21,COCc1nc(NCCCn2c(C)cccc2=O)cc(C2CCOC2)n1 (centres unmarked) [CBK306845],90.9
22,COc1cc2c(cc1OC)C(CCN1CCN(c3ccc(Cl)cc3)CC1)OCC(C)(C)C2 (centres unmarked) [CBK024051C],111

# Reference: paper PMC12040169 (PLOS Biology, 2025)
